According to patent US8901118B2, “Compounds and methods for kinase modulation, and indications therefor” (Plexxikon Inc., priority 2010, dated 2014):

Target: c-Kit kinase (Homo sapiens, UniProt P10721)
Test: c-Kit kinase biochemical activity assay (AlphaScreen, biotin-(E4Y)10 phosphorylation)
Details: 100 μM ATP; read-out: Biochemical Inhibition IC50 Kit
Method in brief: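 Phosphorylation of 30 nM biotin-(E4Y)10 by c-Kit (0.75 ng per reaction) with 100 µM ATP in HEPES pH 7.5 buffer with Mg2+/Mn2+, 5% DMSO, 1 h at room temperature; 8-point 1:2 compound dilutions. AlphaScreen detection with streptavidin donor and PY20 acceptor beads after EDTA stop. IC50 from signal versus concentration.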

c-Kit kinase, sequence (P10721 26-976): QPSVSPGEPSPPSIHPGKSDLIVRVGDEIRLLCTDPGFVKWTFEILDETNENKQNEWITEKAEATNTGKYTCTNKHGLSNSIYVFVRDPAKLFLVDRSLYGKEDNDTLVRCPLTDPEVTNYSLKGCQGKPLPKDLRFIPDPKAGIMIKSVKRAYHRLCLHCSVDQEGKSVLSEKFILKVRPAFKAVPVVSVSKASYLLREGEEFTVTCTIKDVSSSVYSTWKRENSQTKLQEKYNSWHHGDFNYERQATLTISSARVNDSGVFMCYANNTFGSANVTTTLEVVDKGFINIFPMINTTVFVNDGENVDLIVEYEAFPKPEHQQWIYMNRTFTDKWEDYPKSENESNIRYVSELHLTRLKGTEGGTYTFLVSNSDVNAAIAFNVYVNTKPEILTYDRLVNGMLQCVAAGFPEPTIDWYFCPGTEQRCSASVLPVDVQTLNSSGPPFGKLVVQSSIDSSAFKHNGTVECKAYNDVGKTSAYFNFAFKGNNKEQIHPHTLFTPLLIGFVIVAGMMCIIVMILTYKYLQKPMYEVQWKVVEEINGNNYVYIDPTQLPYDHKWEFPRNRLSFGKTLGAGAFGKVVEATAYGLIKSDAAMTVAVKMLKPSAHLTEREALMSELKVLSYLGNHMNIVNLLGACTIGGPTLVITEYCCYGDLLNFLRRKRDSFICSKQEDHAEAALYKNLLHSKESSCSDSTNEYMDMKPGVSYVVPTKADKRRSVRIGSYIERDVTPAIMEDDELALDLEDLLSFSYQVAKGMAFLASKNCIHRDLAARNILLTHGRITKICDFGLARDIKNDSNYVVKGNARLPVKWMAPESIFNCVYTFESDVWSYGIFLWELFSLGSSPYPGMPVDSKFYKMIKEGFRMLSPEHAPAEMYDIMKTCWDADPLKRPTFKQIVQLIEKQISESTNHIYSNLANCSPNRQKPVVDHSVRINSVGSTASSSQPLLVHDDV

Row | SMILES | IC50 [µM]
1 | Clc1cnc2[nH]cc(Cc3cnc(NC4CCCCC4)nc3)c2c1 [Compound P-3001, [5-(5-chloro-1H-pyrrolo[2,3-b]pyridin-3-ylmethyl)-pyrimidin-2-yl]-cyclohexyl-amine] | < 1
2 | Clc1cnc2[nH]cc(Cc3cnc(NC4CCCC4)nc3)c2c1 [Compound P-3003, [5-(5-Chloro-1H-pyrrolo[2,3-b]pyridin-3-ylmethyl)-pyrimidin-2-yl]-cyclopentyl-amine] | > 1
3 | Clc1cnc2[nH]cc(Cc3cnc(NC4CC4)nc3)c2c1 [Compound P-3005, [5-(5-Chloro-1H-pyrrolo[2,3-b]pyridin-3-ylmethyl)-pyrimidin-2-yl]-cyclopropyl-amine] | > 1
4 | Clc1cnc2[nH]cc(Cc3cnc(NC4CCCCCC4)nc3)c2c1 [Compound P-3006, [5-(5-Chloro-1H-pyrrolo[2,3-b]pyridin-3-ylmethyl)-pyrimidin-2-yl]-cycloheptyl-amine] | < 1
5 | COc1ccc(Nc2ncc(Cc3c[nH]c4ncc(C)cc34)cn2)cc1F [Compound P-3023, (3-Fluoro-4-methoxy-phenyl)-[5-(5-methyl-1H-pyrrolo[2,3-b]pyridin-3-ylmethyl)-pyrimidin-2-yl]-amine] | < 0.1
6 | Cc1cnc2[nH]cc(Cc3cnc(Nc4cc(-c5ccc(F)cc5)n[nH]4)nc3)c2c1 [Compound P-3028, [5-(4-Fluoro-phenyl)-2H-pyrazol-3-yl]-[5-(5-methyl-1H-pyrrolo[2,3-b]pyridin-3-ylmethyl)-pyrimidin-2-yl]-amine] | < 1
7 | Cc1cnc2[nH]cc(Cc3cnc(Nc4cc(C(C)(C)C)n[nH]4)nc3)c2c1 [Compound P-3029, (5-tert-Butyl-2H-pyrazol-3-yl)-[5-(5-methyl-1H-pyrrolo[2,3-b]pyridin-3-ylmethyl)-pyrimidin-2-yl]-amine] | < 1
8 | Cc1cnc2[nH]cc(Cc3cnc(Nc4ccc(C(C)(C)C)cc4)nc3)c2c1 [Compound P-3030, (4-tert-Butyl-phenyl)-[5-(5-methyl-1H-pyrrolo[2,3-b]pyridin-3-ylmethyl)-pyrimidin-2-yl]-amine amine] | < 0.1
9 | Cc1cnc2[nH]cc(Cc3cnc(Nc4ccc(C(O)(C(F)(F)F)C(F)(F)F)cc4)nc3)c2c1 [Compound P-3031, 1,1,1,3,3,3-Hexafluoro-2-{4-[5-(5-methyl-1H-pyrrolo[2,3-b]pyridin-3-ylmethyl)-pyrimidin-2-ylamino]-phenyl}-propan-2-ol] | < 0.1
10 | Cc1cnc2[nH]cc(Cc3cnc(Nc4cc(C5CC5)n[nH]4)nc3)c2c1 [Compound P-3032, (5-Cyclopropyl-2H-pyrazol-3-yl)-[5-(5-methyl-1H-pyrrolo[2,3-b]pyridin-3-ylmethyl)-pyrimidin-2-yl]-amine] | < 1
11 | CSc1ccc(Nc2ncc(Cc3c[nH]c4ncc(C)cc34)cn2)cc1 [Compound P-3033, [5-(5-Methyl-1H-pyrrolo[2,3-b]pyridin-3-ylmethyl)-pyrimidin-2-yl]-(4-methylsulfanyl-phenyl)-amine] | < 0.01
12 | Cc1cnc2[nH]cc(Cc3cnc(Nc4ccc(S(C)(=O)=O)cc4)nc3)c2c1 [Compound P-3034, (4-Methanesulfonyl-phenyl)-[5-(5-methyl-1H-pyrrolo[2,3-b]pyridin-3-ylmethyl)-pyrimidin-2-yl]-amine] | < 0.1
13 | Cc1cnc2[nH]cc(Cc3cnc(Nc4cc(C(F)(F)F)n[nH]4)nc3)c2c1 [Compound P-3037, [5-(5-Methyl-1H-pyrrolo[2,3-b]pyridin-3-ylmethyl)-pyrimidin-2-yl]-(5-trifluoromethyl-2H-pyrazol-3-yl)-amine] | < 1
14 | Cc1cnc2[nH]cc(Cc3cnc(Nc4cc(OC(C)C)n[nH]4)nc3)c2c1 [Compound P-3038, (5-Isopropoxy-2H-pyrazol-3-yl)-[5-(5-methyl-1H-pyrrolo[2,3-b]pyridin-3-ylmethyl)-pyrimidin-2-yl]-amine] | < 1
15 | CCc1ccc(Nc2ccc(Cc3c[nH]c4ncc(C)cc34)c(F)n2)cn1 [Compound P-3048, (6-Ethyl-pyridin-3-yl)-[6-fluoro-5-(5-methyl-1H-pyrrolo[2,3-b]pyridin-3-ylmethyl)-pyridin-2-yl]-amine] | < 0.1
16 | CCc1ccc(Nc2ccc(C(=O)c3c[nH]c4ncc(C)cc34)c(F)n2)cn1 [Compound P-3049, [6-(6-Ethyl-pyridin-3-ylamino)-2-fluoro-pyridin-3-yl]-(5-methyl-1H-pyrrolo[2,3-b]pyridin-3-yl)-methanone] | < 0.1
17 | Cc1cnc2[nH]cc(Cc3ccc(Nc4ccc(C5CC5)nc4)nc3F)c2c1 [Compound P-3050, (6-Cyclopropyl-pyridin-3-yl)-[6-fluoro-5-(5-methyl-1H-pyrrolo[2,3-b]pyridin-3-ylmethyl)-pyridin-2-yl]-amine] | < 0.1
18 | Cc1cnc2[nH]cc(C(=O)c3ccc(Nc4ccc(C5CC5)nc4)nc3F)c2c1 [Compound P-3051, [6-(6-Cyclopropyl-pyridin-3-ylamino)-2-fluoro-pyridin-3-yl]-(5-methyl-1H-pyrrolo[2,3-b]pyridin-3-yl)-methanone] | < 0.1
19 | O=C(c1ccc(Nc2ccc(C3CC3)nc2)nc1F)c1c[nH]c2ncccc12 [Compound P-3052, [6-(6-Cyclopropyl-pyridin-3-ylamino)-2-fluoro-pyridin-3-yl]-(1H-pyrrolo[2,3-b]pyridin-3-yl)-methanone] | < 0.1
20 | Fc1nc(Nc2ccc(C3CC3)nc2)ccc1Cc1c[nH]c2ncccc12 [Compound P-3053, (6-Cyclopropyl-pyridin-3-yl)-[6-fluoro-5-(1H-pyrrolo[2,3-b]pyridin-3-ylmethyl)-pyridin-2-yl]-amine] | < 0.1
21 | COc1ccc(Nc2ccc(Cc3c[nH]c4ncnc(C)c34)c(F)n2)cn1 [Compound P-4002, [6-Fluoro-5-(4-methyl-7H-pyrrolo[2,3-d]pyrimidin-5-ylmethyl)-pyridin-2-yl]-(6-methoxy-pyridin-3-yl)-amine] | < 1
22 | Cc1cncc(Nc2ccc(Cc3c[nH]c4ncnc(C5CC5)c34)c(F)n2)c1 [Compound P-4038, [5-(4-Cyclopropyl-7H-pyrrolo[2,3-d]pyrimidin-5-ylmethyl)-6-fluoro-pyridin-2-yl]-(5-methyl-pyridin-3-yl)-amine] | < 1
23 | Cc1cncc(Nc2ccc(C(=O)c3c[nH]c4ncnc(C5CC5)c34)c(F)n2)c1 [Compound P-4039, (4-Cyclopropyl-7H-pyrrolo[2,3-d]pyrimidin-5-yl)-[2-fluoro-6-(5-methyl-pyridin-3-ylamino)-pyridin-3-yl]-methanone] | < 1
24 | Fc1nc(NC2CCC(F)(F)CC2)ccc1Cc1c[nH]c2ncnc(NCC(F)(F)F)c12 [Compound P-4128, 5-[[6-[(4,4-difluorocyclohexyl)amino]-2-fluoro-3-pyridyl]methyl]-N-(2,2,2-trifluoroethyl)-7H-pyrrolo[2,3-d]pyrimidin-4-amine] | > 1
25 | Fc1nc(NC2CCC(F)(F)CC2)ccc1Cc1c[nH]c2ncnc(NC3CC3)c12 [Compound P-4129, N-cyclopropyl-5-[[6-[(4,4-difluorocyclohexyl)amino]-2-fluoro-3-pyridyl]methyl]-7H-pyrrolo[2,3-d]pyrimidin-4-amine] | < 1
26 | Fc1nc(Nc2ccc(C3CC3)nc2)ccc1Cc1c[nH]c2ncnc(NCC(F)(F)F)c12 [Compound P-4130, 5-[[6-[(6-cyclopropyl-3-pyridyl)amino]-2-fluoro-3-pyridyl]methyl]-N-(2,2,2-trifluoroethyl)-7H-pyrrolo[2,3-d]pyrimidin-4-amine] | < 1
